The target of assay [1] is C-C chemokine receptor type 6 (Homo sapiens, UniProt P51684). The experiment in a line: antagonism of CCR6 beta-arrestin recruitment – cell-based, luminescent beta-arrestin readout, dose response (AID 504728). In kind it is functional.
A further assay addresses Beta-galactosidase (Escherichia coli, UniProt Q8VNN2). The experiment in a line: detection-enzyme interference by beta-gal modulators – biochemical, E. coli enzyme, set 3, artefact control for CCR6 antagonist project, dose response (AID 504712). Type of assay: functional.
The nature of assay [2]: Luminescence-based cell-based high throughput dose response assay to identify activators of the DAF-12 from the parasite S. stercoralis (ssDAF-12). Type of assay: functional.
Assay [3] concerns the target T1, Oxysterols receptor LXR-beta (Homo sapiens, UniProt P55055).
T1 sequence (P55055 whole entry): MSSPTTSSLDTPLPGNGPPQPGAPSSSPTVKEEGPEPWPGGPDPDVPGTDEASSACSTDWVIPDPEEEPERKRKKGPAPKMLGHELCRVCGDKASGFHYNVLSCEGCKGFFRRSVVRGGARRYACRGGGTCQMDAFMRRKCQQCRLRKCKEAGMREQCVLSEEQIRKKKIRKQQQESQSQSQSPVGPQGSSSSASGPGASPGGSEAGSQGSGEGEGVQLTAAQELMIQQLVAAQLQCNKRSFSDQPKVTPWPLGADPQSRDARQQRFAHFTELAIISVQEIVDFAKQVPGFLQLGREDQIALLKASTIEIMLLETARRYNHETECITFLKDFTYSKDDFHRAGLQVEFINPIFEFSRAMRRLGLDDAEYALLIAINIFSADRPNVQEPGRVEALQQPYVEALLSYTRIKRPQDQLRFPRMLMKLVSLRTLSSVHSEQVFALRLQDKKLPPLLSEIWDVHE
The experiment in a line: LXR agonists, Gal4 luciferase reporter, dose response, counter-screen for ssDAF-12 agonist project, cell-based, luminescence, HEK293, S. stercoralis campaign (AID 720737). In kind it is functional. To be noted: read-out: IC50 (the source's name). A general note: Reporter assays use an easily measured gene product as a stand-in for the process of interest.

The target in assay [4] is Eukaryotic translation initiation factor 4E (Mus musculus, UniProt P63073). The experiment in a line: blockers of eIF4G binding by eIF4E – biochemical, TR-FRET, dose response (AID 855).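 Further: potency for disrupting eIF4E binding to eIF4GI seen as loss of FRET.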 Type of assay: functional. In general terms: In TR-FRET formats the signal depends on donor and acceptor labels being close together.
Assay [5] has as its target T2, Carboxy-terminal domain RNA polymerase II polypeptide A small phosphatase 1 (Homo sapiens, UniProt Q9GZU7).
T2 sequence (Q9GZU7 whole entry): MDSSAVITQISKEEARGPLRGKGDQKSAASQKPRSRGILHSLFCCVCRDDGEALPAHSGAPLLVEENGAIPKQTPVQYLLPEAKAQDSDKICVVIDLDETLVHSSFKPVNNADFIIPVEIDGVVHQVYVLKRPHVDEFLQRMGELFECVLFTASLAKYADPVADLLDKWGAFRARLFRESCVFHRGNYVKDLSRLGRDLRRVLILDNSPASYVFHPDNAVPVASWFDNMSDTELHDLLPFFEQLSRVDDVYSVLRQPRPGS
The experiment in a line: CTDSP1 inhibitors, concentration-response, biochemical, absorbance readout, ultra-high-throughput screen actives (AID 540297). In kind it is functional.

The target in assay [6] is Serine/threonine-protein phosphatase PP1-alpha catalytic subunit (Homo sapiens, UniProt P62136). Description: inhibition of protein phosphatase 1 activity – biochemical, fluorescence, dose response (AID 2403).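 Further: phosphatase turnover of OMFP into fluorescent 3-O-methylfluorescein.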
The target in assay [7] is Serine/threonine-protein phosphatase (Homo sapiens, UniProt Q9BPW0). The experiment in a line: Counterscreen for inhibitors of PP1: fluorescence-based biochemical high throughput dose response assay to identify inhibitors of Protein Phosphatase 5 (PP5). [Related pubchem assays: 2034 (Summary (PP5 inhibitors)), 1987 (PP5 inhibitors in singlate), 2235 (PP1 inhibitors in singlate)]. In general terms: A counterscreen serves to expose hits that act by an unwanted route or on another target.

A short description of assay [8]: A Cell Based Secondary Assay To Explore Cytotoxicity of Compounds that Sensitize Mycobacterium Tuberculosis to Beta-Lactam Antibiotics. In kind it is functional.
Another assay has as its target Leucine aminopeptidase (Plasmodium falciparum 3D7, UniProt Q8IL11). The experiment in a line: P. falciparum M17LAP inhibitors, primary screen, biochemical, fluorogenic H-Leu-NHMec substrate, 1536-well (AID 1619). Type of assay: functional.
Assay [9] in a line: viability of uninfected HEp-2 cells – cell-based, HTS, cytotoxicity control for RSV inhibitor project, dose response (AID 2410). As to conditions: human respiratory syncytial virus. In kind it is functional.
The target of another assay is Estrogen receptor (Homo sapiens, UniProt P03372). The experiment in a line: ERα coactivator recruitment enhancers – biochemical, TR-FRET, ERα LBD, dose response (AID 737).
Assay [10] addresses T3, Alkaline phosphatase, tissue-nonspecific isozyme (Homo sapiens, UniProt P05186).
T3 sequence (P05186 whole entry): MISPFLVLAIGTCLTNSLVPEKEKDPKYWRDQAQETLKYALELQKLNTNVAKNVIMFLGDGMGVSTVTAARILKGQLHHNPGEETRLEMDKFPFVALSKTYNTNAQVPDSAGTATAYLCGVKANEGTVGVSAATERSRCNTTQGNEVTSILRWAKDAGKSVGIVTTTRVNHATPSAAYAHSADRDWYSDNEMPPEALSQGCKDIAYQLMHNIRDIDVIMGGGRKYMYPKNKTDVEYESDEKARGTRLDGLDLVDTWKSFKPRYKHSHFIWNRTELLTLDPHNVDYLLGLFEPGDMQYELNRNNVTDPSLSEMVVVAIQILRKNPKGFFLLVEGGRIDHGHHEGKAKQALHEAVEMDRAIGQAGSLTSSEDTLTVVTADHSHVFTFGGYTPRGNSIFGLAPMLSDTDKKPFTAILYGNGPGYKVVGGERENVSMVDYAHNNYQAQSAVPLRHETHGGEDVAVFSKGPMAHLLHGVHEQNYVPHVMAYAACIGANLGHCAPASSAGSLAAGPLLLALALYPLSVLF

The nature of assay [11]: viability loss in THP-1 monocytes – THP-1 cells, cytotoxicity control for Vif-APOBEC3G degradation inhibitor project, dose response (AID 1117359). To be noted: THP-1. In kind it is functional.
In assay [12] the target is G-protein coupled receptor 55 (Homo sapiens, UniProt Q9Y2T6). The experiment in a line: inhibition of LPI-stimulated GPR55 beta-arrestin translocation – imaging, U2OS, beta-arrestin-GFP, LPI agonist, primary screen (AID 2013).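 Further: antagonist potency measured as reduced agonist-driven arrestin aggregation.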 In kind it is functional.
Another assay addresses T4, Caspase-3 (Homo sapiens, UniProt P42574).
T4 sequence (P42574 whole entry): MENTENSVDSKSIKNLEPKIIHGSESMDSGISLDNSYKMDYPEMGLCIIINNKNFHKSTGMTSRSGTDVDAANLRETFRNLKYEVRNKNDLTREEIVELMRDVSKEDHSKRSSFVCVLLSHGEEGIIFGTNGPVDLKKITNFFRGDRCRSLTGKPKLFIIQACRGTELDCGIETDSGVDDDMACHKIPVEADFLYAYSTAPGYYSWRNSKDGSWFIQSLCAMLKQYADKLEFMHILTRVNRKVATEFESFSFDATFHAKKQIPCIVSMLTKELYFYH
The experiment in a line: activation of caspase-3 zymogen – biochemical, absorbance, dose response (AID 489014).

The target in a further assay is Caspase-7 (Homo sapiens, UniProt P55210). Description: activation of caspase-7 zymogen – biochemical, absorbance, counter-screen for procaspase-3 activator project, dose response (AID 489013).
The target in another assay is X-box-binding protein 1 (Homo sapiens, UniProt P17861). Type of assay: functional, Cricetulus griseus.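 Further: confirmatory dose-response counter-screen serving a CHOP assay.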

Activity calls are given as the source filed them.

Chain of Leucine aminopeptidase (Q8IL11 whole entry): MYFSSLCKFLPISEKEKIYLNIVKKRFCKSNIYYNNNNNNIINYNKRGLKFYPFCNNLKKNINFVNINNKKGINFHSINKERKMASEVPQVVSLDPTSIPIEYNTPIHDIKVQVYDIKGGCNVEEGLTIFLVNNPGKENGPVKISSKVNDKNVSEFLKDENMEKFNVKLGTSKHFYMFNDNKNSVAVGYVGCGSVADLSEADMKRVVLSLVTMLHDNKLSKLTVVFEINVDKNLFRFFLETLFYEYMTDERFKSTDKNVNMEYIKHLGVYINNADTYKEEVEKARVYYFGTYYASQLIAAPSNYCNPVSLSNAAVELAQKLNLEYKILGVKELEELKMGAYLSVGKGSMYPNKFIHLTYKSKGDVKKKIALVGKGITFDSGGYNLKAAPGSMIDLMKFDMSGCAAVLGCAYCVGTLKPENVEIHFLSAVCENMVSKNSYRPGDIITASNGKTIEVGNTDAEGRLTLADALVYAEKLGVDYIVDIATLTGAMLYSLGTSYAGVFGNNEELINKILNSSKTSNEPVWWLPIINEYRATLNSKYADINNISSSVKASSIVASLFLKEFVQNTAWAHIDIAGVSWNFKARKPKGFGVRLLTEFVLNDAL
Chain of Caspase-7 (P55210 24-198 limits assumed): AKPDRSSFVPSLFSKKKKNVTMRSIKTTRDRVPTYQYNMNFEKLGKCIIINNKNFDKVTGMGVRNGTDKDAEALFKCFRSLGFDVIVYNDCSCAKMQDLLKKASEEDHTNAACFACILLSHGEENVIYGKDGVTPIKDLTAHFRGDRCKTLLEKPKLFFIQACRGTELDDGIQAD
Chain of Caspase-7 (P55210 207-303 limits assumed): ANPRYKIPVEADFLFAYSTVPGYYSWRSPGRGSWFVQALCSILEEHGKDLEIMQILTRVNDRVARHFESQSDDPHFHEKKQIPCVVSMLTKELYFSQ
Chain of Estrogen receptor (P03372 whole entry, the tested form may be a part): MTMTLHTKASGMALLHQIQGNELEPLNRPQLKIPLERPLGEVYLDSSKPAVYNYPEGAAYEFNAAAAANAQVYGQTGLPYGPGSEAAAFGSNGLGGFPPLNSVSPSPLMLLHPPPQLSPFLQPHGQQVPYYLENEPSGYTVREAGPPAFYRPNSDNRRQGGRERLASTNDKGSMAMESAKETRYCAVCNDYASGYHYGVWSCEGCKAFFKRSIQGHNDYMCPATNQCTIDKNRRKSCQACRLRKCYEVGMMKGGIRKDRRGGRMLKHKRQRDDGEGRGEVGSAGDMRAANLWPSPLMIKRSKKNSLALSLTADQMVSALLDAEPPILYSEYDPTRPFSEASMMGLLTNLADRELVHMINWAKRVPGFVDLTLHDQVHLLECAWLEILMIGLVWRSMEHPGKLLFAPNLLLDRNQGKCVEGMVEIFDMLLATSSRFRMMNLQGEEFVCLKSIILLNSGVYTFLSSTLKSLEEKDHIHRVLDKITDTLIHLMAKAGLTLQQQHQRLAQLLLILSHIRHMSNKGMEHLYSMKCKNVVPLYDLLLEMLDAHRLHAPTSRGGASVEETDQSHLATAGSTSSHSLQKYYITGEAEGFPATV
Chain of Serine/threonine-protein phosphatase (Q9BPW0 whole entry): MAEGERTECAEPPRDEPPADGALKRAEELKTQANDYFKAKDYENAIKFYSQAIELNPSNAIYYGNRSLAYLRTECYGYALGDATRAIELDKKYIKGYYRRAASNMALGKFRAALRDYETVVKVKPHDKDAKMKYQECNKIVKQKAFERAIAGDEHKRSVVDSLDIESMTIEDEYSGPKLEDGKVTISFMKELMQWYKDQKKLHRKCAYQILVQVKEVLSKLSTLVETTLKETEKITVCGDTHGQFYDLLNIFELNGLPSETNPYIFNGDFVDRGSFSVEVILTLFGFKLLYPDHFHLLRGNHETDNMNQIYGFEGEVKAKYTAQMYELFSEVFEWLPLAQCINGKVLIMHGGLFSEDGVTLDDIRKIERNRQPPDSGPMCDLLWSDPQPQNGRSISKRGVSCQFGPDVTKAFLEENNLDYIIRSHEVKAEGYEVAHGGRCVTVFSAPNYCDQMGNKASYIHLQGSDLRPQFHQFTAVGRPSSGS
Chain of Beta-galactosidase (Q8VNN2 whole entry): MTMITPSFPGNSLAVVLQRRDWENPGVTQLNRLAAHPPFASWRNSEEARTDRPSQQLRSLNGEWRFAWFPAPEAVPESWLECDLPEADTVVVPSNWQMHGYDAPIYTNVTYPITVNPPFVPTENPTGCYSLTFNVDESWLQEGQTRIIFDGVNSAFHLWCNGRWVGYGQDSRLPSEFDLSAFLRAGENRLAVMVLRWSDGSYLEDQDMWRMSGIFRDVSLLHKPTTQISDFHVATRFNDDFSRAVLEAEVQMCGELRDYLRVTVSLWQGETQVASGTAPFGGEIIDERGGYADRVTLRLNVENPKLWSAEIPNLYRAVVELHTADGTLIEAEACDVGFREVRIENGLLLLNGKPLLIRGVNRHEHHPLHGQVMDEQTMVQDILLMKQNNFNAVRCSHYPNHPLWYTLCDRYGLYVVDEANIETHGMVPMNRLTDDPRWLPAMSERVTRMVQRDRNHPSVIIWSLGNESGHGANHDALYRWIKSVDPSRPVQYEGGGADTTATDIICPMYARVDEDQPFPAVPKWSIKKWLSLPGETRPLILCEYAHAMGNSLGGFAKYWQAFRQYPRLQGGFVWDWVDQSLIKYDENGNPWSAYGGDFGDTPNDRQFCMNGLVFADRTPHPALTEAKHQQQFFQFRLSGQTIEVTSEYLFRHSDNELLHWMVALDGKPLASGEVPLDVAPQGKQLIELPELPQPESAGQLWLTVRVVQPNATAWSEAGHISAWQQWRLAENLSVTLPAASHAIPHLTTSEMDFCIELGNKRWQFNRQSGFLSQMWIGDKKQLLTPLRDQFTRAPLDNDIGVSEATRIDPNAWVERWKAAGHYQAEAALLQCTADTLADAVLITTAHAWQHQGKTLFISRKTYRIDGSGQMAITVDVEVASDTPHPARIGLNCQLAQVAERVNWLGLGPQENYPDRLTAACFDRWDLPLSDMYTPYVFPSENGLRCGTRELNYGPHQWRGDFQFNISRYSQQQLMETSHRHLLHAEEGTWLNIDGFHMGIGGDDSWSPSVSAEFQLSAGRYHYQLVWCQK
Chain of X-box-binding protein 1 (P17861 whole entry): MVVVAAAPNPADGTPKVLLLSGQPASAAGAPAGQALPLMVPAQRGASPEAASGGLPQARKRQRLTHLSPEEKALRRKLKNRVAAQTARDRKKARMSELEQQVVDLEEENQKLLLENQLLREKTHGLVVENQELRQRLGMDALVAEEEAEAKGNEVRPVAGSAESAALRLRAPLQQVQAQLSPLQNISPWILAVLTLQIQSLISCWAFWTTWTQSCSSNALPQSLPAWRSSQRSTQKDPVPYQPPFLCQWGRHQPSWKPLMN
Chain of C-C chemokine receptor type 6 (P51684 whole entry): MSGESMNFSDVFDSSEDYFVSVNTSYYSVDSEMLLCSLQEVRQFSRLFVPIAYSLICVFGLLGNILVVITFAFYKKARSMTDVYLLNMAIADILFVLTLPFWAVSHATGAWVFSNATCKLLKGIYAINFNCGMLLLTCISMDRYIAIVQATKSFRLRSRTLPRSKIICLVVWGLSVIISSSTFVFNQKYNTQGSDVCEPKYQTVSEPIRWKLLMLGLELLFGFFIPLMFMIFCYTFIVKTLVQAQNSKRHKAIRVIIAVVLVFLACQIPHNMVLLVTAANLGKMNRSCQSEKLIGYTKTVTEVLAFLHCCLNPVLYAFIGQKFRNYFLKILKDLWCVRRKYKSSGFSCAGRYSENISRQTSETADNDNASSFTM
Chain of Serine/threonine-protein phosphatase PP1-alpha catalytic subunit (P62136 whole entry): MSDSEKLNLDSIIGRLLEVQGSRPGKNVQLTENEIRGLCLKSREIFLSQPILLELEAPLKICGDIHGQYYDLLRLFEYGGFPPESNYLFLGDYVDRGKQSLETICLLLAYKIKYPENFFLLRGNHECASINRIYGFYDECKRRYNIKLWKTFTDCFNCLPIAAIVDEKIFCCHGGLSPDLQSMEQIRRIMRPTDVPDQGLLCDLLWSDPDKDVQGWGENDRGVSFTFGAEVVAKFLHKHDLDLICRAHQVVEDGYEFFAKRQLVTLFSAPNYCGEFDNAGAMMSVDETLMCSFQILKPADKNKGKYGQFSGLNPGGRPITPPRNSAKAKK
Chain of Eukaryotic translation initiation factor 4E (P63073 whole entry, the tested form may be a part): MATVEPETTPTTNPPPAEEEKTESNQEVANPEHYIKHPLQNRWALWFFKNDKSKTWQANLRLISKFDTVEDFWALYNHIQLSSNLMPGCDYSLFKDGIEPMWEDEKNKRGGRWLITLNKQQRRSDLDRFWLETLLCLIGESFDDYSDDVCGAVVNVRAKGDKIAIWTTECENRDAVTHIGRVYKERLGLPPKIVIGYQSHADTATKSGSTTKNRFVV
Chain of G-protein coupled receptor 55 (Q9Y2T6 whole entry): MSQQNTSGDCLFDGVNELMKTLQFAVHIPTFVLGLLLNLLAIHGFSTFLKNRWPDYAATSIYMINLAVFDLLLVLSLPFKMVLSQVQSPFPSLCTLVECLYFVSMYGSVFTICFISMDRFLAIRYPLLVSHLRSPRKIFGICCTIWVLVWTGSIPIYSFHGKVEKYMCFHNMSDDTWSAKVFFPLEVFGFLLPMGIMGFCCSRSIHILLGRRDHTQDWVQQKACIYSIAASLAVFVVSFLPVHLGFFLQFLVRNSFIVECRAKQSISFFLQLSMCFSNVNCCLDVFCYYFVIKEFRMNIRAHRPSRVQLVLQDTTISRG

Usually IC50 stands for the concentration needed to halve the response being measured. For `Cc1c(C(=O)Nc2nc3ccccc3[nH]2)oc2ccccc12`, the IC50 in [1] is 0.552 µM (active); on Beta-galactosidase, > 66.6 µM (inactive); in [2], > 67.5 µM (inactive). In [3], the EC50 was > 67.5 µM (inactive).

`c1ccc2[nH]c(-c3ccnc4ccccc34)nc2c1`: the IC50 in assay [4] was > 64 µM (inactive); in [5], 3.66 µM (active).

As for `COc1ccc(CN2C(=O)Cc3c2nc(N)c2c(N)nc(N4CCCCC4)c(C#N)c32)cc1`, the figures for the IC50 in [6] and in [7] were 11.1 µM (not active) and > 67 µM (not active), respectively.

What is called CC50 is the concentration giving 50% cytotoxicity. For the compound `Cc1cc(NC(=O)CSc2nc(C(C)C)nc3sc4c(c23)CCCC4)no1`, in assay [8], the CC50 was 38 µM (active).

For `CCc1ccccc1NC(=O)CSc1nnc[nH]1`, at Leucine aminopeptidase, the IC50 is 34.4 µM (active).

In the case of `Cc1nc2ccccc2nc(C)c1=NOCc1cccc(F)c1`, the half-maximal cytotoxic concentration (CC50) in [9] is 41.4 µM (active). Moreover, the IC50 in “cells” was 35.9 µM (active).

With `COc1cccc(-n2nnnc2SCC(=O)Nc2ccc(C(C)=O)cc2)c1`, the EC50 on Estrogen receptor was 17.3 µM (active).

Turning to `CCC(C)N=C(S)NNC(=O)c1ccc(C(C)(C)C)cc1` (stereo not given), in assay [10], the EC50 is reported as 79.2 µM (not active). The CC50 in [11] was > 40 µM (active).

`COc1cc(OC)c(-n2c(C)cc(C=O)c2C)cc1Cl`: the IC50 in assay [12] is 4.72 µM (active).

`CCCCOn1c(C)c(C(=O)OCC)c2c3nonc3ccc21`: the EC50 on Caspase-3 and on Caspase-7 was > 85.3 µM (inactive) each time.

For the compound `CCCOc1ccc(N2C(=O)CC(SC(=NCC)Nc3cccc(F)c3)C2=O)cc1` (stereo not given), the “Absolute IC50 (XBP1)” value on X-box-binding protein 1 amounted to 10 µM.

Take `N#Cc1ccsc1NC(=O)CSc1nnc[nH]1`: the IC50 on Leucine aminopeptidase was 10.7 µM (active).

For the origin of these results see ChEMBL document CHEMBL1201862, “PubChem BioAssay data set” (2004).
